{"source": "paper PMC7881117", "about": "(Nature Communications, 2021)", "target": "T1, p53 (Homo sapiens, UniProt P04637)", "T1 construct": "gene TP53", "T1 sequence (P04637 whole entry)": "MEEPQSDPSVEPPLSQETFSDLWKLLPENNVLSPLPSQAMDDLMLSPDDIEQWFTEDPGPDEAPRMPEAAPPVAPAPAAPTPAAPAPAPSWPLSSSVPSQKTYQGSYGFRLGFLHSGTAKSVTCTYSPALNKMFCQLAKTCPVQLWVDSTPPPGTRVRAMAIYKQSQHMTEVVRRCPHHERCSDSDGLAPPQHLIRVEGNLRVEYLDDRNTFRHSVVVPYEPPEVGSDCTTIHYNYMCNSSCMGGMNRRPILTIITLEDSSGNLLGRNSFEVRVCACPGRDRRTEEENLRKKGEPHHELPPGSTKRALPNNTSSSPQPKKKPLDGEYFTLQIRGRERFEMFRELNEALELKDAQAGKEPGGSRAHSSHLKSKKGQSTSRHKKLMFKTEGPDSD", "assay": "SPR with immobilized p53; also STD NMR, […]-13C NCO NMR titration, SAXS and AUC with NTD", "type": "binding"}
{"molecule": "O=C(O[C@@H]1Cc2c(O)cc(O)cc2O[C@@H]1c1cc(O)c(O)c(O)c1)c1cc(O)c(O)c(O)c1", "note": "[EGCG, Epigallocatechin gallate]", "values": [{"measurement": "Kd", "value": "1600 ± 1400", "unit": "nM"}]}
